Experimental data: ChEMBL document CHEMBL4715696, “In vitro synergistic anticancer activity of the combination of T-type calcium channel blocker and chemotherapeutic agent in A549 cells” (Bioorg Med Chem Lett, 2016)

Tests used:
[1] = tested on: A549; experiment: Decrease in cell cycle associated protein expression in human A549 cells assessed as fold change in CDK4 expression at 10 uM after 24 hrs by Western blot analysis (reference value: 0.87); type: functional
[2] = tested on: A549; experiment: Decrease in cell cycle associated protein expression in human A549 cells assessed as fold change in CDK6 expression at 10 uM after 24 hrs by Western blot analysis (reference value: 0.7); type: functional
[3] = tested on: A549; experiment: Decrease in cell cycle associated protein expression in human A549 cells assessed as fold change in cyclin D3 expression at 10 uM after 12 hrs by Western blot analysis (reference value: 1.09); type: functional
[4] = Upregulation of p27KIP1 protein expression in human A549 cells assessed as fold change in expression at 10 uM after 48 hrs by Western blot analysis (reference value: 0.48 to 0.83); type: functional
[5] = tested on: A549; experiment: Induction of cell cycle arrest in human A549 cells assessed as accumulation at G2/M phase at 5 uM after 24 hrs by flow cytometric analysis (reference value: 21.6%); type: functional
[6] = tested on: A549; experiment: Potentiation of etoposide-induced cell cycle arrest in human A549 cells assessed as accumulation at sub G1 phase at 2.5 uM in presence of etoposide after 48 hrs by flow cytometric analysis (Rvb =33 %); type: functional
[7] = tested on: A549; experiment: Potentiation of cisplatin-induced cell cycle arrest in human A549 cells assessed as accumulation at G1 phase at 2.5 uM in presence of cisplatin after 48 hrs by flow cytometric analysis (reference value: 14.4%); type: functional
[8] = tested on: A549; experiment: Decrease in cell cycle associated protein expression in human A549 cells assessed as fold change in CDK6 expression at 5 uM after 48 hrs by Western blot analysis (reference value: 1.05); type: functional
[9] = tested on: A549; experiment: Potentiation of cisplatin-induced cell cycle arrest in human A549 cells assessed as accumulation at sub G1 phase at 10 uM in presence of cisplatin after 48 hrs by flow cytometric analysis (reference value: 17%); type: functional
[10] = tested on: A549; experiment: Decrease in cell cycle associated protein expression in human A549 cells assessed as fold change in cyclin D1 expression at 10 uM after 36 hrs by Western blot analysis (reference value: 0.68); type: functional
[11] = tested on: A549; experiment: Decrease in cell cycle associated protein expression in human A549 cells assessed as fold change in cyclin D2 expression at 10 uM after 48 hrs by Western blot analysis (reference value: 0.46 to 0.77); type: functional
[12] = tested on: A549; experiment: Decrease in cell cycle associated protein expression in human A549 cells assessed as fold change in cyclin D1 expression at 10 uM after 6 hrs by Western blot analysis (reference value: 0.68); type: functional
[13] = tested on: A549; experiment: Potentiation of etoposide-induced cell cycle arrest in human A549 cells assessed as accumulation at G1 phase at 5 uM in presence of etoposide after 48 hrs by flow cytometric analysis (reference value: 36%); type: functional
[14] = tested on: A549; experiment: Potentiation of etoposide-induced cell cycle arrest in human A549 cells assessed as accumulation at sub G1 phase at 10 uM in presence of etoposide after 48 hrs by flow cytometric analysis (Rvb =33 %); type: functional
[15] = tested on: A549; experiment: Potentiation of cisplatin-induced cell cycle arrest in human A549 cells assessed as accumulation at G1 phase at 10 uM in presence of cisplatin after 48 hrs by flow cytometric analysis (reference value: 14.4%); type: functional
[16] = target: CYP2C19 (Homo sapiens, UniProt P33261); experiment: Inhibition of human CYP2C19 assessed as residual activity at 10 uM measured after 15 mins relative to control; type: ADME; conditions: read-out: Activity
[17] = tested on: A549; experiment: Decrease in cell cycle associated protein expression in human A549 cells assessed as fold change in CDK2 expression at 10 uM after 36 hrs by Western blot analysis (reference value: 0.79); type: functional
[18] = tested on: A549; experiment: Decrease in cell cycle associated protein expression in human A549 cells assessed as fold change in cyclin D1 expression at 2.5 uM after 48 hrs by Western blot analysis (reference value: 0.39); type: functional
[19] = tested on: A549; experiment: Induction of apoptosis in human A549 cells assessed as early apoptotic cells at 10 uM incubated for 48 hrs by AnnexinV-FITC/propidium iodide staining based flow cytometry (reference value: 1.2%); type: functional
[20] = tested on: A549; experiment: Decrease in cell cycle associated protein expression in human A549 cells assessed as fold change in CDK4 expression at 10 uM after 48 hrs by Western blot analysis (reference value: 0.62 to 0.87); type: functional
[21] = Upregulation of p27KIP1 protein expression in human A549 cells assessed as fold change in expression at 2.5 uM after 48 hrs by Western blot analysis (reference value: 0.48); type: functional
[22] = tested on: A549; experiment: Potentiation of cisplatin-induced cell cycle arrest in human A549 cells assessed as accumulation at sub G1 phase at 2.5 uM in presence of cisplatin after 48 hrs by flow cytometric analysis (reference value: 17%); type: functional
[23] = tested on: A549; experiment: Decrease in cell cycle associated protein expression in human A549 cells assessed as fold change in CDK4 expression at 5 uM after 48 hrs by Western blot analysis (reference value: 0.62); type: functional
[24] = tested on: A549; experiment: Decrease in cell cycle associated protein expression in human A549 cells assessed as fold change in cyclin D2 expression at 10 uM after 6 hrs by Western blot analysis (reference value: 0.77); type: functional
[25] = Metabolic stability in mouse liver microsomes assessed as parent compound remaining at 1 uM measured for 30 mins; type: ADME, Microsome; conditions: read-out: Stabilty
[26] = tested on: A549; experiment: Induction of cell cycle arrest in human A549 cells assessed as accumulation at S phase at 5 uM after 48 hrs by flow cytometric analysis (reference value: 10.4 to 12%); type: functional
[27] = tested on: A549; experiment: Induction of cell cycle arrest in human A549 cells assessed as increase in cell accumulation at G1 phase after 48 hrs by flow cytometric analysis; type: functional, cell-based; conditions: dose 2.5-10 µM
[28] = tested on: A549; experiment: Upregulation of p27KIP1 protein expression in human A549 cells at 10 uM by Western blot analysis; type: functional, cell-based; conditions: time 6-48 hrs, TDE = time-dependent effect
[29] = tested on: A549; experiment: Decrease in cell cycle associated protein expression in human A549 cells assessed as fold change in cyclin D1 expression at 10 uM after 12 hrs by Western blot analysis (reference value: 0.68); type: functional
[30] = tested on: A549; experiment: Potentiation of cisplatin-induced cell cycle arrest in human A549 cells assessed as accumulation at G2/M phase at 10 uM in presence of cisplatin after 48 hrs by flow cytometric analysis (Rvb =52.9%); type: functional
[31] = tested on: A549; experiment: Induction of cell cycle arrest in human A549 cells assessed as accumulation at S phase at 10 uM after 48 hrs by flow cytometric analysis (reference value: 10.4%); type: functional
[32] = Metabolic stability in human plasma assessed as parent compound remaining at 10 uM measured after 30 mins; type: ADME, cell-free; conditions: read-out: Stabilty
[33] = Increase in recruitment of […] p27KIP1 to CDK2 in human A549 cells assessed as fold change at 10 uM incubated for 12 hrs by immunoprecipitation/immunoblot analysis (reference value: 0.43); type: functional
[34] = tested on: A549; experiment: Induction of cell cycle arrest in human A549 cells assessed as accumulation at sub G1 phase at 10 uM after 48 hrs by flow cytometric analysis (reference value: 1.9%); type: functional

CYP2C19, sequence (P33261 whole entry): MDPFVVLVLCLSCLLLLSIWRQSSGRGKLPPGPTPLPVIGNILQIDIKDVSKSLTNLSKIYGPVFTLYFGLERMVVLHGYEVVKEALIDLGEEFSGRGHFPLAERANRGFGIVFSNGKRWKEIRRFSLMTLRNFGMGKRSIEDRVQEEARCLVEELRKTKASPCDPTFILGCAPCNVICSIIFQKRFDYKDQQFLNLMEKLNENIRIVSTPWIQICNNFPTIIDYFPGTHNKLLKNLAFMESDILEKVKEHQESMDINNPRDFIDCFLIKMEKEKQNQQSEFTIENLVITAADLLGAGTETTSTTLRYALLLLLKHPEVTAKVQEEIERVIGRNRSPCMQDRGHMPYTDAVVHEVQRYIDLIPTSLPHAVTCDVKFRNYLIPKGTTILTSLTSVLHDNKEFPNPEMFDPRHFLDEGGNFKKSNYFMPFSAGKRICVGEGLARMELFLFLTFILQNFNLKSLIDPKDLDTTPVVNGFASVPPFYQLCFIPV

What does the source list for `CN(C)C(=O)NCCCN(C)C1=Nc2ccccc2C(CC(=O)NCc2ccc(F)cc2)N1c1ccc(C2CCCCC2)cc1` (centres undefined)?
fold change (FC) [1]: 0.59; fold change (FC) [2]: 0.47; fold change (FC) [3]: 0.42; fold change (FC) [4]: 0.93; Activity [5]: 19.3%; Activity [6]: 36.9%; Activity [7]: 19.2%; fold change (FC) [8]: 0.45; Activity [9]: 52.3%; fold change (FC) [10]: 0.62; fold change (FC) [11]: 0.18; fold change (FC) [12]: 0.47; Activity [13]: 35.6%; Activity [14]: 83.1%; Activity [15]: 32.4%; activity at 0.25 h, 10 µM [16]: 55.8%; fold change (FC) [17]: 0.71; fold change (FC) [18]: 0.43; Activity [19]: 8.8%; fold change (FC) [20]: 0.46; fold change (FC) [21]: 0.62; Activity [22]: 18.6%; fold change (FC) [23]: 0.64; fold change (FC) [24]: 0.86; remaining at 0.5 h, 1 µM [25]: 64.3%; Activity [26]: 8.3%; Activity [27]: Dose-dependent effect; Activity [28]: Tde; fold change (FC) [29]: 0.35; Activity [30]: 9.4%; Activity [31]: 2.4%; remaining at 0.5 h, 10 µM [32]: 113%; fold change (FC) [33]: 0.6; Activity [34]: 4%
